# Experiments:
# [1] = system: Human immunodeficiency virus 1; test: Antiviral activity against wildtype HIV-1 IIIB infected in human MT4 cells assessed as protection against virus-induced cytopathic effect incubated for 5 days by MTT assay; type: functional, organism-based; conditions: Human immunodeficiency virus 1, IIIB, MT4, 120 h
# [2] = Cytotoxicity against human MT4 cells assessed as reduction in cell viability measured after 5 days by MTT assay; conditions: MT4 cells
# [3] = system: Human immunodeficiency virus 1; test: Antiviral activity against HIV-1 harboring RT L100I mutant infected in human MT4 cells assessed as protection against virus-induced cytopathic effect incubated for 5 days by MTT assay; type: functional, organism-based; conditions: Human immunodeficiency virus 1, MT4, 120 h
# [4] = system: Human immunodeficiency virus 1; test: Antiviral activity against HIV-1 harboring RT K103N mutant infected in human MT4 cells assessed as protection against virus-induced cytopathic effect incubated for 5 days by MTT assay; type: functional, organism-based; conditions: Human immunodeficiency virus 1, MT4, 120 h
# [5] = system: Human immunodeficiency virus 1; test: Antiviral activity against HIV-1 harboring RT Y181C mutant infected in human MT4 cells assessed as protection against virus-induced cytopathic effect incubated for 5 days by MTT assay; type: functional, organism-based; conditions: Human immunodeficiency virus 1, MT4, 120 h
# [6] = system: Human immunodeficiency virus 1; test: Antiviral activity against HIV-1 harboring RT F227L/V106A double mutant infected in human MT4 cells assessed as protection against virus-induced cytopathic effect incubated for 5 days by MTT assay; type: functional, organism-based; conditions: Human immunodeficiency virus 1, MT4, 120 h
# [7] = Selectivity index, ratio of CC50 for human MT4 cells to EC50 for wild type HIV-1 IIIB infected in human MT4 cellS
# [8] = target: Human immunodeficiency virus type 1 reverse transcriptase (Human immunodeficiency virus 1, UniProt Q72547); test: Inhibition of recombinant wild type HIV-1 Reverse transcriptase incubated for 40 mins by Pico-green reagent based fluorescence analysis
# [9] = system: Human immunodeficiency virus 1; test: Antiviral activity against HIV-1 harboring RT Y188L mutant infected in human MT4 cells assessed as protection against virus-induced cytopathic effect incubated for 5 days by MTT assay; type: functional, organism-based; conditions: Human immunodeficiency virus 1, MT4, 120 h
# [10] = system: Human immunodeficiency virus 1; test: Antiviral activity against HIV-1 harboring RT E138K mutant infected in human MT4 cells assessed as protection against virus-induced cytopathic effect incubated for 5 days by MTT assay; type: functional, organism-based; conditions: Human immunodeficiency virus 1, MT4, 120 h
# [11] = system: Human immunodeficiency virus 1; test: Antiviral activity against HIV-1 harboring RT K103N/Y181C double mutant infected in human MT4 cells assessed as protection against virus-induced cytopathic effect incubated for 5 days by MTT assay; type: functional, organism-based; conditions: Human immunodeficiency virus 1, MT4, 120 h
SMILES,EC50 [1] [µM],CC50 at 120 h [2] [µM],selectivity ratio ([7]; MT4 cells),further results
O=C1Nc2ccc(Cl)cc2[C@@](C#CC2CC2)(C(F)(F)F)O1 [EFAVIRENZ],0.045,> 7.49,,EC50 [3]: 0.024 µM; EC50 [4]: 0.059 µM; EC50 [5]: 0.006 µM; EC50 [6]: 0.181 µM
Cc1cncc(-c2cnc(Nc3ccc(C#N)cc3)nc2Nc2c(C)cc(-c3ccncc3)cc2C)c1,0.018,11.5,656,
N#Cc1ccc(Nc2ncc(-c3ccnc(Cl)c3)c(Nc3c(F)cc(-c4ccncc4)cc3F)n2)cc1,0.007,103,14100,IC50 [8]: 0.138 µM
COc1ccc(-c2cnc(Nc3ccc(C#N)cc3)nc2Nc2c(C)cc(-c3ccncc3)cc2C)cn1,0.077,> 250,> 3270,
Cc1cc(-c2ccncc2)cc(C)c1Nc1nc(Nc2ccc(C#N)cc2)ncc1-c1ccc(Cl)nc1,0.001,3.98,3990,IC50 [8]: 0.175 µM
N#Cc1ccc(Nc2ncc(-c3ccncc3)c(Nc3c(F)cc(-c4ccncc4)cc3F)n2)cc1,0.01,> 41.9,> 4360,
Cc1cc(-c2cnc(Nc3ccc(C#N)cc3)nc2Nc2c(F)cc(-c3ccncc3)cc2F)ccn1,0.02,162,8090,
N#Cc1ccc(Nc2ncc(-c3ccsc3)c(Nc3c(F)cc(-c4ccncc4)cc3F)n2)cc1,0.007,72.1,10100,IC50 [8]: 0.073 µM
N#Cc1ccc(Nc2ncc(-c3cccnc3)c(Nc3c(F)cc(-c4ccncc4)cc3F)n2)cc1,0.019,> 41.9,> 2250,
N#Cc1ccc(Nc2ncc(-c3cncc(Cl)c3)c(Nc3c(F)cc(-c4ccncc4)cc3F)n2)cc1,0.017,159,9340,
Cc1ccnc2c1NC(=O)c1cccnc1N2C1CC1 [NEVIRAPINE],,> 15,,EC50 [3]: 1.79 µM; EC50 [9]: > 10 µM; EC50 [10]: 0.142 µM; EC50 [6]: > 10 µM; EC50 [11]: > 10 µM
Cc1cc(-c2cnc(Nc3ccc(C#N)cc3)nc2Nc2c(F)cc(-c3ccncc3)cc2F)cnc1Cl,0.153,> 238,> 1560,
Cc1cc(-c2cnc(Nc3ccc(C#N)cc3)nc2Nc2c(F)cc(-c3ccncc3)cc2F)cc(C)n1,0.1,97.9,984,
Cc1cc(-c2cnc(Nc3ccc(C#N)cc3)nc2Nc2c(C)cc(-c3ccncc3)cc2C)cnc1F,0.033,> 249,> 7640,
N#Cc1ccc(Nc2ncc(-c3cncc(F)c3)c(Nc3c(F)cc(-c4ccncc4)cc3F)n2)cc1,0.017,156,9400,
COc1ncc(-c2cnc(Nc3ccc(C#N)cc3)nc2Nc2c(F)cc(-c3ccncc3)cc2F)cc1N,0.044,215,4930,
Cc1cc(-c2cnc(Nc3ccc(C#N)cc3)nc2Nc2c(F)cc(-c3ccncc3)cc2F)cnc1F,0.025,> 246,> 9800,
Cc1cc(-c2ccncc2)cc(C)c1Nc1nc(Nc2ccc(C#N)cc2)ncc1-c1ccc(C(F)(F)F)nc1,0.045,> 3720,> 822,
Cc1cc(-c2cnc(Nc3ccc(C#N)cc3)nc2Nc2c(C)cc(-c3ccncc3)cc2C)cc(C)n1,0.064,36.1,563,

SMILES,EC50 [1] [µM],CC50 at 120 h [2] [µM],selectivity ratio ([7]; MT4 cells),further results
N#Cc1ccc(Nc2ncc(-c3cccs3)c(Nc3c(F)cc(-c4ccncc4)cc3F)n2)cc1,0.011,23.4,2170,IC50 [8]: 0.105 µM
Cc1ccc(-c2cnc(Nc3ccc(C#N)cc3)nc2Nc2c(F)cc(-c3ccncc3)cc2F)cn1,0.027,194,7300,
Cn1c(Cn2ccc(C(F)(F)F)c(Oc3cc(Cl)cc(C#N)c3)c2=O)n[nH]c1=O [DORAVIRINE],,,,IC50 [8]: 0.033 µM
N#Cc1ccc(Nc2ncc(-c3ccc(Cl)nc3)c(Nc3c(F)cc(-c4ccncc4)cc3F)n2)cc1,0.01,196,19100,
COc1ncc(-c2cnc(Nc3ccc(C#N)cc3)nc2Nc2c(F)cc(-c3ccncc3)cc2F)cc1F,0.049,> 238,> 4810,
N#Cc1ccc(Nc2ncc(-c3cncc(N)c3)c(Nc3c(F)cc(-c4ccncc4)cc3F)n2)cc1,0.07,167,2380,
N#Cc1ccc(Nc2ncc(-c3ccc(F)nc3)c(Nc3c(F)cc(-c4ccncc4)cc3F)n2)cc1,0.009,167,18500,
COc1ncc(-c2cnc(Nc3ccc(C#N)cc3)nc2Nc2c(C)cc(-c3ccncc3)cc2C)cc1N,0.007,81.1,11300,EC50 [3]: 0.048 µM; EC50 [4]: 0.01 µM; EC50 [5]: 0.031 µM; EC50 [9]: 0.066 µM; EC50 [10]: 0.014 µM; EC50 [6]: 1.1 µM; EC50 [11]: 0.114 µM
Cc1cncc(-c2cnc(Nc3ccc(C#N)cc3)nc2Nc2c(F)cc(-c3ccncc3)cc2F)c1,0.041,104,2540,
COc1cc(-c2cnc(Nc3ccc(C#N)cc3)nc2Nc2c(F)cc(-c3ccncc3)cc2F)ccn1,0.02,> 246,> 12400,
CN(C)c1ccc(-c2cnc(Nc3ccc(C#N)cc3)nc2Nc2c(F)cc(-c3ccncc3)cc2F)cn1,0.074,52.9,714,
Cc1cc(-c2ccncc2)cc(C)c1Nc1nc(Nc2ccc(C#N)cc2)ncc1-c1cncc(F)c1,0.043,> 257,> 6000,
Cc1cc(-c2cnc(Nc3ccc(C#N)cc3)nc2Nc2c(C)cc(-c3ccncc3)cc2C)cnc1Cl,0.043,> 242,> 5560,
N#Cc1ccc(Nc2ncc(-c3ccc(N)nc3)c(Nc3c(F)cc(-c4ccncc4)cc3F)n2)cc1,0.025,143,5790,
N#Cc1ccc(Nc2ncc(-c3ccnc(F)c3)c(Nc3c(F)cc(-c4ccncc4)cc3F)n2)cc1,0.01,121,12300,IC50 [8]: 0.127 µM
Cc1cc(-c2ccncc2)cc(C)c1Nc1nc(Nc2ccc(C#N)cc2)ncc1-c1ccc(N(C)C)nc1,0.112,> 39,> 350,
N#Cc1ccc(Nc2ncc(-c3ccco3)c(Nc3c(F)cc(-c4ccncc4)cc3F)n2)cc1,0.007,> 42.9,> 6300,IC50 [8]: 0.077 µM
COc1ccc(-c2cnc(Nc3ccc(C#N)cc3)nc2Nc2c(F)cc(-c3ccncc3)cc2F)cn1,0.026,169,6430,
Cc1cn([C@H]2C[C@H](N=[N+]=[N-])[C@@H](CO)O2)c(=O)[nH]c1=O [ZIDOVUDINE],0.026,> 248,,selectivity ratio ([7]; mt4): > 9710; EC50 [4]: 0.025 µM; EC50 [5]: 0.037 µM; EC50 [9]: 0.033 µM; EC50 [10]: 0.03 µM; EC50 [6]: 0.028 µM
